How the values were obtained:
Sirt2 (demyristoylation) = Sirt2 (demyristoylation) (Homo sapiens, UniProt Q8IXJ6); test: Continuous Sirt2 demyristoylation assay (myristoylated peptide substrate); type: biochemical; conditions: peptide-based myristoylated substrate, triplicate; read-out: Sirt2-mediated demyristoylation IC50
Description: As a second method to confirm the inhibition of Sirt2-mediated demyristoylation by 33, we used a continuous Sirt2 demyristoylation assay as reported by Zessin et al.[48] In brief, this assay was performed in a black 384-well fluorescence plate in a total volume of 40 μL of Sirt assay buffer (20 mM Tris-HCl, 150 mM NaCl, 5 mg/mL MgCl2, 2 mg/mL BSA, pH 7.8). Dilution series of the inhibitor was done in DMSO. A total of 2 μL of the inhibitor dilutions were incubated with 14 μL of the peptide substrate, referred to as F4 in Zessin et al.[48] (final concentration 40 nM) and 14 μL of Sirt2 solution (final concentration 1 nM) for 5 min at room temperature. In addition to the inhibitor-containing samples, a sample without inhibitors was measured as a positive control, and a sample without enzymes was measured as a negative control. The DMSO concentration was set to 5% (v/v). The reaction was started by the addition of 10 μL of NAD^+ (final concentration 500 μM). The product formation was monitored by the change in fluorescence intensity, and the reaction rate represented the activity. Fluorescence readout was performed with a BMG Fluostar Omega plate reader at following wavelengths: Excitation wavelength: λEx = 485 ± 10 nm, emission wavelength: λEm = 530 ± 10 nm. Inhibition was calculated using the following equation: [drawing 1] […]

α-tubulin acetylation = test: Immunofluorescence microscopy of α-tubulin acetylation in PC-3M-luc cells; type: cell-based; conditions: 20 μM, 5 h
Description: The detection of acetylation levels of α-tubulin by immunofluorescence was performed as previously described.[47] In brief, PC-3M-luc cells (25 000 cells per well) were plated in Ibidi 8-well slides (Ibidi, catalogue no. 80826) and incubated overnight at 37 °C, 5% CO2. Next, cells were treated with 20 μM of inhibitor. After 5 h, the medium was removed and the cells washed with PBS and fixed with 4% PFA for 8–10 min at ambient temperature. Cells were rinsed three times with PBS and lysed with extraction buffer (PBS, 0.1% Triton X-100) for 3–5 min at ambient temperature. After another washing step with PBS, blocking buffer (PBS, 0.1% Triton, 5% FCS) was added for at least 10 min before incubating with monoclonal acetylated α-tubulin antibody (1:500, Sigma-Aldrich, catalogue no. T6793) in blocking buffer overnight at 4 °C. […] The cells were rinsed two times with blocking buffer and once with PBS and DAPI in mounting medium ([…] HardSet Antifade Mounting Medium with DAPI, no. H-1500-10) diluted 1:50 in PBS was added and it was incubated for 10 min in the dark. Confocal microscopy was performed with a Leica SP8 confocal microscope equipped with a 40×/1.40 oil objective (Leica Microsystems) keeping the laser settings of the images constant to allow direct comparison of signal intensities between images.

W1 ovarian cancer cells = test: Cell viability assay (MTT) W1; type: cell-based; conditions: 72 h, @ 50 μM
Description: (§1) Cell viability assays of HGC27 and PC-3M-luc cells were performed by using the Celltiter 96 Aqueous Nonradioactive Proliferation Assay (Promega). Cells were seeded in sterile 96-well plates at a density of 2000 cells per well and incubated overnight at 37 °C and 5% CO2. Compound or vehicle were added to a final concentration of 0.5% DMSO. […] Cells were seeded at densities of 10^4 cells/well for W1 cells or 2 × 10^3 cells/well for MCF-7 cells. Tests were performed in 96-well plates (Sarstedt AG, Nümbrecht, Germany). After incubation overnight, cells were supplemented with half logarithmic dilution series of the indicated compounds and DPBS (PAN Biotech GmbH, Aidenbach, Germany) as control. Then 72 h after addition of cytostatic treatment, the MTT solution (20 μL, 5 mg/mL) was added into the wells for 1 h at 37 °C and 5% CO2 until formazan crystals were formed. The supernatant was removed, and the cells were dissolved in 200 μL of DMSO. Absorption was analyzed at 570 nm, with background subtraction at 690 nm, using a plate reader (Thermomultiscan EX, Thermo, Schwerte, Germany). Cell viability was then determined by nonlinear regression and a four-parameter logistic equation with variable hill slope. […] The significance of the difference of the effects of 33 and 4 + 57 was determined by using an unpaired, two-tailed t test with Welch’s correction, implemented in GraphPad Prism 8.4.0 (GraphPad, USA). Statistical significance was accepted if p < 0.05. Asterisks indicate *p < 0.05, **p < 0.01.

[1] = test system: histone H3 acetylation (marker of HDAC1-3 inhibition); test: Western blot on histone H3 hyperacetylation in MCF-7 cells; type: cell-based; conditions: 24 h, 10 µM
Description: Western blots on histone H3 hyperacetylation in MCF-7 cells were performed according to a previously published protocol.[72] In brief, MCF-7 were centrifuged (450g, 4 min, 22 °C) and lysed with cell extraction buffer (Thermo Fisher), supplemented with 0.1 mM PMSF, Halt Protease Inhibitor (Thermo Fisher), and Natriumorthovanadat (Thermo Fisher). Precast gels with a polymerization degree of 4–15% were used (Mini-PROTEAN TGX Stain-Free; Bio-Rad Laboratories GmbH, Munich, Germany). Proteins were transferred to Trans-Blot Turbo-PVDF membrane (Bio-Rad). The membrane was blocked with skimmed milk powder in Tris-buffered saline-Tween 20 (with 0.2% Tween 20) for 60 min, followed by three washing cycles of 10 min using Tris-buffered saline-Tween 20. Afterward, membranes were incubated with primary antibodies for ac.-Histon H3 (Cell Signal, rabbit) and GAPDH (Gene Tex, Irvine, USA, mouse) for a total of 60 min at room temperature and then incubated at 4 °C overnight. […] After rinsing of the secondary antibody, membranes were detected using ClarityECL Western Blotting Substrate (Bio-Rad). For quantitative determination, the StainFree technique was employed (Bio-Rad), as well as normalization, against the housekeeping protein GAPDH, which allows the imaging of whole lysates in SDS-PAGE before blotting and normalization against the total protein. […]

[2] = test system: HGC27 gastric carcinoma cells; test: Cell viability assay (MTS) HGC27; type: cell-based; conditions: 72 h, @ 50 μM
Description: as §1

[3] = test system: MCF-7 breast cancer cells; test: Cell viability assay (MTT) MCF-7; type: cell-based; conditions: 72 h, @ 50 μM
Description: as §1

[4] = test system: PC-3M-luc prostate cancer cells; test: Cell viability assay (MTS) PC-3M-luc; type: cell-based; conditions: 72 h, @ 50 μM
Description: as §1

Sequence of Sirt2 (demyristoylation) (Q8IXJ6 whole entry): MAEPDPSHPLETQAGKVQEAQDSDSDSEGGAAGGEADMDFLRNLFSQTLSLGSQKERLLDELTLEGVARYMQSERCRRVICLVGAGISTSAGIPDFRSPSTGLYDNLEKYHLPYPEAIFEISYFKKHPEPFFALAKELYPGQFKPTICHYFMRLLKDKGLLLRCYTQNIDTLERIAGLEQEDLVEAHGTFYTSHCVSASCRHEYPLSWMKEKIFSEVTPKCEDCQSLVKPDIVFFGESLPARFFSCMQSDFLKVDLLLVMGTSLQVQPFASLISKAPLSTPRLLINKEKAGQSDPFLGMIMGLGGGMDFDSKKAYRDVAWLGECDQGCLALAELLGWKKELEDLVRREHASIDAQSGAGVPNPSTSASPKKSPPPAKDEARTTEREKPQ

For COCCn1cc(COc2cccc(Cc3cnc(NC(=O)CSc4nc(C)cc(C)n4)s3)c2)nn1 [Compound 5, SirReal1.2, reference compound], the IC50 (Sirt2 (demyristoylation)) was 480 ± 120 nM and the “α-tubulin acetylation (immunofluorescence)” value (α-tubulin acetylation) was “very minor”.
For Cc1cc(C)nc(SCC(=O)Nc2ncc(Cc3cccc(OCc4cn(CCCCC(=O)NCc5ccc(C(=O)NO)cc5)nn4)c3)s2)n1 [Compound 32, 4-((5-(4-((3-((2-(2-((4,6-Dimethylpyrimidin-2-yl)thio)acetamido)thiazol-5-yl)methyl)phenoxy)methyl)-1H-1,2,3-triazol-1-yl)pentanamido)methyl)-N-hydroxybenzamide], the W1 cellular effect (W1 ovarian cancer cells) was “ni ^b (ni = no inhibition (cellular effect <20% @ 50 μM))”, the “Histone H3 hyperacetylation (cellular class I HDAC off-target inhibition)” value [1] was “no significant off-target inhibition of class I” and the HGC27 cellular effect [2] was “ni ^b (ni = no inhibition (cellular effect <20% @ 50 μM))”. The MCF-7 cellular effect [3] was “ni ^b (ni = no inhibition (cellular effect <20% @ 50 μM))” and the PC-3M-luc cellular effect [4] was “ni ^b (ni = no inhibition (cellular effect <20% @ 50 μM))”.

From article PMC10641818, “Development of First-in-Class Dual Sirt2/HDAC6 Inhibitors as Molecular Tools for Dual Inhibition of Tubulin Deacetylation” (Journal of Medicinal Chemistry, 2023)
